# Values quoted from earlier work, collected in patent US7115628B2, “Bridged piperidine derivatives as melanocortin receptor agonists” (Merck & Co., Inc., priority 2001, dated 2006).
# How the values were obtained:
# [1] = system: patients with erectile dysfunction; settings: for duration of effect / onset of action: after an oral dose; for share of men/patients in whom effective (adequate response): oral
# [2] = system: males with psychogenic erectile dysfunction
# [3] = subcutaneous injection formulation
Compound,duration of effect [1],onset of action [1] [min],share of men/patients in whom effective (adequate response) [1],"absorption into the systemic circulation ([2]; in vivo, po)",response rate ([2]; injected intramuscularly or subcutaneously) [%],"duration of action [2, 3]","time to onset of erection [2, 3] [min]"
"CCCc1nn(C)c2c(=O)[nH]c(-c3cc(S(=O)(=O)N4CCN(C)CC4)ccc3OCC)nc12 [Sildenafil, sildenafil]",about 4 hours,30 to 60,about 70%,,,,
Ac-Nle-c[Asp-His-DPhe-Arg-Trp-Lys]-NH2 [MT-II],,,,not absorbed into the systemic circulation,75,approximately 2.5 hours,10 to 20
Cc1ccc(N(CC2=NCCN2)c2cccc(O)c2)cc1 [phentolamine],2 h,5 to 30,35–40%,,,,
